Test results taken from patent US9617262B2, “Antibacterial cyclopental[C]pyrrole substituted 3,4-dihydro-1H-[1,8]naphthyridinones” (Janssen Sciences Ireland UC, priority 2011, dated 2017).

How the values were obtained:
[1] = biological target: S. aureus ATCC 29213 FabI (Staphylococcus aureus (strain MRSA252), UniProt Q6GI75); assay: Staphylococcus aureus FabI enzyme inhibition assay; type: biochemical; conditions: pH 6.5, 30 minutes at room temperature
Procedure: FabI enzyme inhibition assays were carried out in half-area, 384-well microtitre plates. Compounds were evaluated in 40-μl assay mixtures containing 100 mM NaADA, pH 6.5 (ADA=N-[2-acetamido]-2iminodiacetic acid), 250 μM crotonoyl-CoA, 625 μM NADH and 50 μg/ml S. aureus ATCC 29213 FabI. Inhibitors were typically varied over the range of 50 to 0.39 μM. The reaction mixtures were incubated for 30 minutes at room temperature and the reaction was stopped by adding 200 mM Tris buffer (pH 9.0) to create a pH-shift. The consumption of NADH was monitored by measuring the change in absorbance at […]. By comparing sample readings to those of negative (absence of compound) and positive (absence of enzyme) controls, the percent inhibition of enzymatic activity of the compounds was determined. A best-fit curve is fitted by a minimum of squares method. From this an IC50-value (expressed in μg/ml), resulting in 50% inhibition of enzymatic activity, was obtained.

[2] = system: Staphylococcus aureus ATCC 29213; assay: Antibacterial susceptibility testing: IC90 determination (STA); type: cell-based; conditions: STA ATCC 29213, 90% inhibitory concentration for bacterial growth
Procedure: (§1) The following bacteria were used: Staphylococcus aureus ATCC 29213, methicillin-resistant Staphylococcus aureus (MRSA) ATCC 700788 and Escherichia coli ATCC 35218. The bacteria used in this study were grown overnight in flasks containing 100 ml Mueller-Hinton broth (Difco cat. nr. 0757-17) in sterile de-ionized water, with shaking, at 37° C. Stocks were store at −70° C. until use.
(§2) Bacteria were incubated on a tryptic soy agar plate containing 5% sheep blood (Becton Dickinson cat. nr. 254053) for 18-24 hours at 35° C. in aerobic conditions (first passage). For the second passage, fresh Mueller-Hinton broth is inoculated with 5-10 colonies and grown overnight at 35° C. until turbidity (reaching log-phase) in aerobic conditions is reached. The bacterial suspension is then adjusted to 0.5 McFarland density and further diluted 1:100 in Mueller Hinton broth medium. This is used as inoculum.
(§3) MIC assays were performed by the broth microdilution method in a 96-well format (flat-bottom microtitre plates) with a final volume of 0.1 ml Mueller Hinton broth containing two-fold serial dilutions of compounds and inoculated with 5×10^5 CFU/ml of bacteria (standard inoculum size according to CLSI guidelines). Inhibitors are typically varied over the range of 63 to 0.49 μM. The final DMSO concentration in the assay was 1.25% (maximum tolerable DMSO concentration=6%). In the assays where the effect of human serum on the activity of the compounds against S. aureus was tested, human serum was added at a final concentration of 10%. The plates were incubated at 35° C. for 16-20 hours. At the end of incubation the bacterial growth was quantified fluorometrically. For this, resazurin was added to all wells and the plates were re-incubated. The incubation time is dependent on the type of bacteria. A change in color from blue to pink indicated the growth of bacteria. The fluorescence was read in computer-controlled fluorometer (Fluoroskan Ascent FL, Labsystems) at an excitation wavelength 540 nm and an emission wavelength of 590 nm. The % growth inhibition achieved by the compounds was calculated according to standard methods. The IC90 (expressed in μg/ml) was defined as the 90% inhibitory concentration for bacterial growth. A panel of reference compounds were simultaneously tested for QC approval.

[3] = system: S. aureus; assay: Antibacterial susceptibility testing: IC90 determination with 10% human serum (STA + 10% HS); type: cell-based, Staphylococcus aureus; conditions: human serum at a final concentration of 10%
Procedure: as §1, §2, §3
The results are depicted in the table D2 below (STA+10% HS).

[4] = system: Human HelaM cells; assay: Cytotoxicity MTT assay (TOX HELAM); type: cell-based; conditions: 72 hours
Procedure: Cytotoxicity of the compounds was evaluated using the MTT assay. Human HelaM cells grown in 96-well plates were exposed to serial dilutions of the tested compounds (final volume of 0.2 ml) and incubated for 72 hours at 37° C. and 5% CO2. Inhibitors are typically varied over the range of 25 to 0.8 μM. The final DMSO concentration in the assay is 0.5%. MTT (3-(4,5-Dimethylthiazol-2-yl)-2,5-diphenyltetrazolium bromide, a tetrazole) was added and reduced to purple formazan only in living cells. Solubilization of the formazan crystals was achieved by adding 100 μl 2-propanol. Cell viability was determined by measuring the absorbance of the reduced formazan, giving a purple color, at 540 nm and 690 nm. The absorbance measured at 690 nm was automatically subtracted from the absorbance at 540 nm, to eliminate the effects of non-specific absorption. The percent cytotoxicity achieved by the compounds was calculated according to standard methods. Cytotoxicity is reported as CC50, the concentration that causes a 50% reduction in cell viability.
The results are depicted in the table D2 below (TOX HELAM).

SMILES | FabI IC50 [1] | STA (361.159) IC90 [2] | STA + 10% HS (361.169) IC90 [3] | TOX HELAM (222.125) CC50 [4]
O=C1CCc2cc(/C=C/C(=O)N3CC4C=C(c5ccccc5F)CC4C3)cnc2N1 (stereo not drawn) [compound 21] | 0.65 µg/mL | 0.13 µg/mL | 0.29 µg/mL | >4.0346 µg/mL
O=C1CCc2cc(/C=C/C(=O)N3C[C@@H]4CN(c5cccnc5)C[C@@H]4C3)cnc2N1 [compound 20] | 1.07 µg/mL |  |  | 
O=C1CCc2cc(/C=C/C(=O)N3C[C@@H]4CN(S(=O)(=O)c5ccccc5)C[C@@H]4C3)cnc2N1 [compound 33] | 3.06 µg/mL |  |  | 
O=C1CCc2cc(/C=C/C(=O)N3CC4C=C(c5ccccc5Cl)CC4C3)cnc2N1 (stereo not drawn) [compound 9] | 0.75 µg/mL | 0.33 µg/mL | 0.69 µg/mL | 4.77 µg/mL
O=C1CCc2cc(/C=C/C(=O)N3C[C@H]4CC(c5ccncc5)=C[C@H]4C3)cnc2N1 (single isomer, unassigned) [compound 40] | 0.39 µg/mL |  |  | 
C#CN1C[C@@H]2CN(C(=O)/C=C/c3cnc4c(c3)CCC(=O)N4)C[C@@H]2C1 [compound 30] | 2.66 µg/mL |  |  | 
O=C1CCc2cc(/C=C/C(=O)N3CC4C=C(c5cccs5)CC4C3)cnc2N1 (stereo not drawn) [compound 3] | 0.29 µg/mL | 0.03 µg/mL | 0.06 µg/mL | >3.256 µg/mL
CC1=CC2CN(C(=O)/C=C/c3cnc4c(c3)CCC(=O)N4)CC2C1 (stereo not drawn) [compound 52] | 0.50 µg/mL |  |  | 
O=C1CCc2cc(/C=C/C(=O)N3C[C@H]4CC(c5ccccc5)=C[C@H]4C3)cnc2N1 (single isomer, unassigned) [compound 13] | 0.39 µg/mL | 0.31 µg/mL | 0.43 µg/mL | >9.683 µg/mL
O=C1CCc2cc(/C=C/C(=O)N3CC4CC(F)(F)CC4C3)cnc2N1 (stereo not drawn) [compound 34] | 1.67 µg/mL |  |  | 
Cc1cscc1C1=CC2CN(C(=O)/C=C/c3cnc4c(c3)CCC(=O)N4)CC2C1 (stereo not drawn) [compound 60] | 0.59 µg/mL |  |  | 
O=C1CCc2cc(/C=C/C(=O)N3C[C@@H]4CN(c5ccc(Cl)cc5)C[C@@H]4C3)cnc2N1 [compound 35] | 1.25 µg/mL |  |  | 
Cc1ccccc1N1C[C@H]2CN(C(=O)/C=C/c3cnc4c(c3)CCC(=O)N4)C[C@H]2C1 [compound 17] | 0.38 µg/mL | 0.37 µg/mL | 0.38 µg/mL | >10.1103 µg/mL
O=C1CCc2cc(/C=C/C(=O)N3CC4CC(n5cncn5)CC4C3)cnc2N1 (stereo not drawn) [compound 37] | 3.37 µg/mL |  |  | 
O=C1CCc2cc(/C=C/C(=O)N3C[C@H]4CC(Oc5ccccc5)C[C@H]4C3)cnc2N1 (stereo partly drawn) [compound 54] | 1.84 µg/mL |  |  | 
O=C1CCc2cc(/C=C/C(=O)N3CC4CC(n5nccn5)CC4C3)cnc2N1 (stereo not drawn) [compound 39] | 0.56 µg/mL |  |  | 
O=C1CCc2cc(/C=C/C(=O)N3C[C@@H]4CC(c5ccsc5)=C[C@@H]4C3)cnc2N1 [compound 45] | 0.45 µg/mL |  |  | 
O=C1CCc2cc(/C=C/C(=O)N3C[C@@H]4CN(c5nccs5)C[C@@H]4C3)cnc2N1 [compound 24] | 0.58 µg/mL | 4.05 µg/mL | 2.44 µg/mL | >3.9549 µg/mL
